This is an account of results in patent publication US20240239863A1, “GIP RECEPTOR AGONIST AND USE THEREOF” (HANGZHOU ZHONGMEIHUADONG PHARMACEUTICAL CO., LTD., priority 2022, published 2024).

Non-standard residues stand in square brackets, D forms with d. Residues, ends and D or L forms follow the SMILES beside them. Aib = CC(C)(N)C(=O)O

One may read the EC50 as the concentration at which the effect is half-maximal. Lower therefore signals a more potent agent.

The target of the assay is hGLP-1R (Homo sapiens, UniProt P43220). Nature of the assay: Cell agonistic activity at GLP-1 receptor (Example 7). Format: cell-based.
hGLP-1R, sequence (P43220 24-463): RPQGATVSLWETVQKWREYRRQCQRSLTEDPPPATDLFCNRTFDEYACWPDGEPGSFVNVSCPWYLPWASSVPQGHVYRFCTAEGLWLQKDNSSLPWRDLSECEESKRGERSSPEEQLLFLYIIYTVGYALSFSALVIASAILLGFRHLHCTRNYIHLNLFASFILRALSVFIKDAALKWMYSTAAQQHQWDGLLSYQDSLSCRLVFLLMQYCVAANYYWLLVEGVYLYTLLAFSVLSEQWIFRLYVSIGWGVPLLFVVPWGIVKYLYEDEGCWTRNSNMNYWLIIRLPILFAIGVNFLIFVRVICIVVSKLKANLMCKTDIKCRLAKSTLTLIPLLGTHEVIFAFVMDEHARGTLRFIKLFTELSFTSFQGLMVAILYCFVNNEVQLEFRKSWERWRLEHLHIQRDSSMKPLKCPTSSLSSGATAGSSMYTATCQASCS

Consider `CC[C@H](C)[C@H](NC(=O)[C@H](CO)NC(=O)[C@H](Cc1ccc(O)cc1)NC(=O)[C@H](CC(=O)O)NC(=O)[C@H](CO)NC(=O)[C@@H](NC(=O)[C@H](Cc1ccccc1)NC(=O)[C@@H](NC(=O)CNC(=O)[C@H](CCC(=O)O)NC(=O)C(C)(C)NC(=O)[C@@H](N)Cc1ccc(O)cc1)[C@@H](C)O)[C@@H](C)CC)C(=O)N[C@@H](C)C(=O)N[C@@H](CC(C)C)C(=O)N[C@@H](CC(=O)O)C(=O)N[C@@H](CCCNC(=N)N)C(=O)N[C@@H](CC(C)C)C(=O)N[C@@H](Cc1c[nH]cn1)C(=O)N[C@@H](CCC(N)=O)C(=O)N[C@@H](CCC(=O)O)C(=O)N[C@@H](CC(=O)O)C(=O)N[C@@H](Cc1ccccc1)C(=O)N[C@H](C(=O)N[C@@H](CC(N)=O)C(=O)N[C@@H](Cc1c[nH]c2ccccc12)C(=O)N[C@@H](CC(C)C)C(=O)N[C@@H](CC(C)C)C(=O)N[C@@H](C)C(=O)N[C@@H](CCC(N)=O)C(=O)N[C@@H](CCCCN)C(=O)NCC(=O)O)C(C)C` [Sequence 16] (H-Y[Aib]EGTFISDYSIALDRLHQEDFVNWLLAQKG-OH; N-terminus and C-terminus assumed), for which the EC50 is > 0.1 nM. Next, `CC[C@H](C)[C@H](NC(=O)[C@H](CO)NC(=O)[C@H](Cc1ccc(O)cc1)NC(=O)[C@H](CC(=O)O)NC(=O)[C@H](CO)NC(=O)[C@@H](NC(=O)[C@H](Cc1ccccc1)NC(=O)[C@@H](NC(=O)CNC(=O)[C@H](CCC(=O)O)NC(=O)C(C)(C)NC(=O)[C@@H](N)Cc1ccc(O)cc1)[C@@H](C)O)[C@@H](C)CC)C(=O)N[C@@H](C)C(=O)N[C@@H](CC(C)C)C(=O)N[C@@H](CC(=O)O)C(=O)N[C@@H](CCCNC(=N)N)C(=O)N[C@@H](CC(C)C)C(=O)N[C@@H](Cc1c[nH]cn1)C(=O)N[C@@H](CCC(N)=O)C(=O)N[C@@H](CCC(N)=O)C(=O)N[C@@H](CC(=O)O)C(=O)N[C@@H](Cc1ccccc1)C(=O)N[C@H](C(=O)N[C@@H](CC(N)=O)C(=O)N[C@@H](Cc1c[nH]c2ccccc12)C(=O)N[C@@H](CC(C)C)C(=O)N[C@@H](CC(C)C)C(=O)N[C@@H](C)C(=O)N[C@@H](CCC(N)=O)C(=O)N[C@@H](CCCCN)C(=O)NCC(=O)O)C(C)C` [Sequence 18] (H-Y[Aib]EGTFISDYSIALDRLHQQDFVNWLLAQKG-OH; N-terminus and C-terminus assumed): > 0.1 nM. For the compound `CC[C@H](C)[C@H](NC(=O)[C@H](CO)NC(=O)[C@H](Cc1ccc(O)cc1)NC(=O)[C@H](CC(=O)O)NC(=O)[C@H](CO)NC(=O)[C@@H](NC(=O)[C@H](Cc1ccccc1)NC(=O)[C@@H](NC(=O)CNC(=O)[C@H](CCC(=O)O)NC(=O)C(C)(C)NC(=O)[C@@H](N)Cc1ccc(O)cc1)[C@@H](C)O)[C@@H](C)CC)C(=O)N[C@@H](C)C(=O)N[C@@H](CC(C)C)C(=O)N[C@@H](CC(=O)O)C(=O)N[C@@H](CCC(=O)O)C(=O)N[C@H](C(=O)N[C@@H](Cc1c[nH]cn1)C(=O)N[C@@H](CCC(N)=O)C(=O)N[C@@H](CCCCN)C(=O)N[C@@H](CC(=O)O)C(=O)N[C@@H](Cc1ccccc1)C(=O)N[C@H](C(=O)N[C@@H](CCCCN)C(=O)N[C@@H](Cc1c[nH]c2ccccc12)C(=O)N[C@@H](CC(C)C)C(=O)N[C@@H](CC(C)C)C(=O)N[C@@H](C)C(=O)N[C@@H](CCC(N)=O)C(=O)N[C@@H](CCCCN)C(=O)NCC(=O)O)C(C)C)[C@@H](C)CC` [Sequence 4] (H-Y[Aib]EGTFISDYSIALDEIHQKDFVKWLLAQKG-OH; N-terminus and C-terminus assumed), the EC50 is > 0.1 nM. In the case of `CC[C@H](C)[C@H](NC(=O)[C@H](CO)NC(=O)[C@H](Cc1ccc(O)cc1)NC(=O)[C@H](CC(=O)O)NC(=O)[C@H](CO)NC(=O)[C@@H](NC(=O)[C@H](Cc1ccccc1)NC(=O)[C@@H](NC(=O)CNC(=O)[C@H](CCC(=O)O)NC(=O)C(C)(C)NC(=O)[C@@H](N)Cc1ccc(O)cc1)[C@@H](C)O)[C@@H](C)CC)C(=O)N[C@@H](C)C(=O)N[C@@H](CC(C)C)C(=O)N[C@@H](CC(=O)O)C(=O)N[C@@H](CCC(=O)O)C(=O)N[C@H](C(=O)N[C@@H](Cc1c[nH]cn1)C(=O)N[C@@H](CCC(N)=O)C(=O)N[C@@H](CCCCN)C(=O)N[C@@H](CC(=O)O)C(=O)N[C@@H](Cc1ccccc1)C(=O)N[C@H](C(=O)N[C@@H](CC(N)=O)C(=O)N[C@@H](Cc1c[nH]c2ccccc12)C(=O)N[C@@H](CC(C)C)C(=O)N[C@@H](CC(C)C)C(=O)N[C@@H](C)C(=O)N[C@@H](CCC(N)=O)C(=O)N[C@@H](CCCNC(=N)N)C(=O)NCC(=O)O)C(C)C)[C@@H](C)CC` [Sequence 5] (H-Y[Aib]EGTFISDYSIALDEIHQKDFVNWLLAQRG-OH; N-terminus and C-terminus assumed), the EC50 was > 0.1 nM. As for `CC[C@H](C)[C@H](NC(=O)[C@H](CO)NC(=O)[C@H](Cc1ccc(O)cc1)NC(=O)[C@H](CC(=O)O)NC(=O)[C@H](CO)NC(=O)[C@@H](NC(=O)[C@H](Cc1ccccc1)NC(=O)[C@@H](NC(=O)CNC(=O)[C@H](CCC(=O)O)NC(=O)C(C)(C)NC(=O)[C@@H](N)Cc1ccc(O)cc1)[C@@H](C)O)[C@@H](C)CC)C(=O)N[C@@H](C)C(=O)N[C@@H](CC(C)C)C(=O)N[C@@H](CC(=O)O)C(=O)N[C@@H](CCCCN)C(=O)N[C@@H](CC(C)C)C(=O)N[C@@H](Cc1c[nH]cn1)C(=O)N[C@@H](CCC(N)=O)C(=O)N[C@@H](CCC(=O)O)C(=O)N[C@@H](CC(=O)O)C(=O)N[C@@H](Cc1ccccc1)C(=O)N[C@H](C(=O)N[C@@H](CC(N)=O)C(=O)N[C@@H](Cc1c[nH]c2ccccc12)C(=O)N[C@@H](CC(C)C)C(=O)N[C@@H](CC(C)C)C(=O)N[C@@H](C)C(=O)N[C@@H](CCC(N)=O)C(=O)N[C@@H](CCCNC(=N)N)C(=O)NCC(=O)O)C(C)C` [Sequence 10] (H-Y[Aib]EGTFISDYSIALDKLHQEDFVNWLLAQRG-OH; N-terminus and C-terminus assumed), the EC50 was > 0.1 nM.

On to `CC[C@H](C)[C@H](NC(=O)[C@H](CO)NC(=O)[C@H](Cc1ccc(O)cc1)NC(=O)[C@H](CC(=O)O)NC(=O)[C@H](CO)NC(=O)[C@@H](NC(=O)[C@H](Cc1ccccc1)NC(=O)[C@@H](NC(=O)CNC(=O)[C@H](CCC(=O)O)NC(=O)C(C)(C)NC(=O)[C@@H](N)Cc1ccc(O)cc1)[C@@H](C)O)[C@@H](C)CC)C(=O)N[C@@H](C)C(=O)N[C@@H](CC(C)C)C(=O)N[C@@H](CC(=O)O)C(=O)N[C@@H](CCCNC(=N)N)C(=O)N[C@@H](CC(C)C)C(=O)N[C@@H](Cc1c[nH]cn1)C(=O)N[C@@H](CCC(N)=O)C(=O)N[C@@H](CCC(=O)O)C(=O)N[C@@H](CC(=O)O)C(=O)N[C@@H](Cc1ccccc1)C(=O)N[C@H](C(=O)N[C@@H](CCCCN)C(=O)N[C@@H](Cc1c[nH]c2ccccc12)C(=O)N[C@@H](CC(C)C)C(=O)N[C@@H](CC(C)C)C(=O)N[C@@H](C)C(=O)N[C@@H](CCC(N)=O)C(=O)N[C@@H](CCCNC(=N)N)C(=O)NCC(=O)O)C(C)C` [Sequence 15] (H-Y[Aib]EGTFISDYSIALDRLHQEDFVKWLLAQRG-OH; N-terminus and C-terminus assumed), for which the concentration for a half-maximal effect (EC50) is > 0.1 nM.
